Measured values reported in patent US20030125264A1, “Methods For Treating Wounds” (Kimberly-Clark Worldwide, Inc., priority 2001, published 2003).

System: human foreskin fibroblasts (ATCC cell line CRL-2522)
Experiment: proliferative response of human skin fibroblasts to flavonoids (96-well, Cell Titer 96 Aqueous One, absorbance 490 nm)
Format: cell-based
Settings: for difference in cell proliferation between controls and test compound (one-way ANOVA): P<0.01 and 0.05, vehicle control 0.1% DMSO in DMEM, n=6; for cell proliferating effect on human skin fibroblasts: at lower concentrations (samples tested at 10^-4, 10^-5 and 10^-6 M; 28 hours, serum-free DMEM, 0.1% DMSO, n=6)
Protocol: The proliferative response of flavonoids to the human skin fibroblast cell line (ATCC, Manassas, Va., cell line CRL-2522 human foreskin fibroblast) was determined in a 96-well assay system using serum-free medium as a control. Stock solutions of flavonoids were prepared as 1.0 mole/L solutions in Dimethyl sulfoxide (DMSO, Sigma Chemical Company, St. Louis, Mo.) then diluted with Dulbecco's Modified Eagle's Medium (DMEM, Sigma Chemical Co., St. Louis, Mo.) to 10^−4, 10^−5, and 10^−6 M solutions with a final DMSO concentration of 0.1% (v:v). Cells were seeded into 96 well plates at a concentration of 2×10^3 cells in 100 μl of DMEM containing 10% fetal bovine serum (FBS, Sigma Chemical Co., St. Louis, Mo.). Plates were incubated for 24 hours at 37° C. in a humidified, 5% CO2 atmosphere. After incubation, the medium was aspirated and the wells were rinsed twice with 100 μl of serum-free DMEM. The final rinse was aspirated and 100 μl of the 10^−4-10^−6 M of each solution was added to 6 wells. In addition, 100 μl of vehicle (serum free DMEM with DMSO at 0.1% v:v) was added to 6 wells as control. In addition, duplicate wells of each test and control solution were placed in wells without the human fibroblast cells to serve as blanks for each treatment. All wells were incubated for 28 hours at 37° C. in a humidified, 5% CO2 atmosphere. After incubation, 20 μl of Cell Titer 96 Aqueous One Solution Reagent (Promega, Corp., Madison, Wis.) was added to all wells. The plates were swirled gently and place back in the incubator for 45 minutes and spectrophotometric absorbance was read at 490 nm. Absorbance of the wells without cells was subtracted from the absorbance of the wells with cells to give the true absorbance. Various compounds of present invention were tested for their cell proliferating effect on human skin fibroblasts. The effect of flavonoids naringin and quercetin on cell proliferation in human foreskin fibroblasts (ATCC cell line CRL-2522) was measured and data is presented in FIG. 1. The control and all test materials contained a final concentration of 0.1% DMSO in DMEM with n=6. Sample concentrations were 10^−4, 10^−5 and 10^−6 M. Statistical analysis was done by using one-way ANOVA.

SMILES	difference in cell proliferation between controls and test compound (one-way ANOVA)	cell proliferating effect on human skin fibroblasts	cell growth relative to the control (at higher concentrations (samples tested at 10^-4, 10^-5 and 10^-6 M; 28 hours, serum-free DMEM, 0.1% DMSO, n=6))
C[C@@H]1O[C@@H](O[C@H]2[C@H](Oc3cc(O)c4c(c3)O[C@H](c3ccc(O)cc3)CC4=O)O[C@H](CO)[C@@H](O)[C@@H]2O)[C@H](O)[C@H](O)[C@H]1O [naringin]	Statistically significant difference	good cell proliferating agents	
O=c1c(O)c(-c2ccc(O)c(O)c2)oc2cc(O)cc(O)c12 [quercetin]	Statistically significant difference	good cell proliferating agents	appears to show cell inhibition
